{"source": "patent US8822413B2", "about": "“Bifunctional hormone having alpha-MSH activity and natriuretic peptide activity and uses thereof” (Theratechnologies Inc., priority 2007, dated 2014)", "format_in_all_cases": "in vivo, rat", "key": {"Sprague-Dawley (SD) rats [1]": {"test_system": "Sprague-Dawley (SD) rats", "test": "Post-injury (therapeutic) treatment, acute kidney dysfunction following renal ischemia", "conditions": "15 μg/kg/h for 2 h after clamp removal, FIG. 4", "description": "Peptides #2 and #33 were infused for 2 h after the removal of the renal clamps in the rat model of renal ischemia. Blood samples were collected at the indicated times and plasma creatinine and urea were determined. Data were analyzed by two way ANOVA using Bonferroni test for significance against the saline-treated group (n=3 per group; sal n=6);\n(§1) Surgical preparation. The rats were anesthetized with Isoflurane 2.5% for the duration of the experiment. Animals were placed under radiant warmer to keep the temperature at 37.5° C. A blood sample (0.5 ml) was collected via tail vein artery before the renal artery clamping. Once the animal was anesthetized, placed in a supine position, a 1.5 cm flank incision was made on the right side of the abdominal wall. The right kidney was then exposed and the ureter, renal artery and renal vein were carefully dissected and ligated. The kidney was removed after cutting renal pedicle. A same incision was made on the left side of the abdominal wall. The left kidney is exposed and the renal vascular pedicle is carefully dissected. The renal vascular pedicle was then occluded by placing a vascular clip (Micro Serrefine™, Fine Science Tools) for a period of 30 or 45 minutes. This renal vascular pedicle clamping produced an acute renal artery occlusion (RAO). The kidney was inspected for ischemia as well as for good reperfusion after removing vascular clip for 2 minutes. The wound of abdominal wall was closed in two layers. The muscular layer was closed with a running 3-0 silk suture and the skin was closed with suture clips (Fine Science Tools). 21 hours after right nephrectomy and left renal artery clipping procedure, the rats were put in the metabolic cages for urine collection (in pre-weighed Tube 50 ml) for 3 hours. Urine volume was measured by weighing the tube containing urine. Then, the animals were anesthetized with Isoflurane 2.5%. Left kidney was removed and kept in formalin for future histology. Blood was collected by cardiac puncture into a heparinized syringe (3 ml) and immediately transferred into appropriately labeled tubes that contain heparin as the anticoagulant. Following collection, all blood samples were kept on ice and centrifuged for 2 min at 13000 rpm. Plasma and urine aliquots (400 μl) were removed and stored at −80° C.\nPreparation of dosing solutions. Peptides (#2 and #33) were also made up fresh daily in a 0.1% HSA saline solution (33 μl of 30% HSA in […] saline) at concentration of 100 μg/100 μl. […]\nIn order to verify if short infusions of the peptides post-injury (therapeutic treatment) would be beneficial to reduce kidney injury, peptides #2 or #33 were infused at 15 μg/kg/h for 2 h after renal artery clamp removal. Plasma creatinine and urea were determined at different times. […]"}, "Sprague-Dawley (SD) rats [2]": {"test_system": "Sprague-Dawley (SD) rats", "test": "Chronic infusion, acute kidney dysfunction following renal ischemia", "conditions": "FIG. 5", "description": "After removing the renal artery clamps, peptide #2 or #33 was infused at two doses using intraperitoneally implanted Alzet™ minipumps (2ML1; delivery rate 10 μl/h). Plasma creatinine and BUN were determined at the indicated times. Data were analyzed by two way ANOVA using Bonferroni test for significance against the saline-treated group (n=3 per group; sal n=6); and\nas §1\nIn order to test the effect of chronic infusion of the bifunctional hormone on kidney function on kidney injury, peptides #2 or #33 were infused at 1.5 or 15 μg/kg/h for 24 h after renal artery clamp removal. Plasma creatinine and urea nitrogen were determined at 24 h after the injury. The experimental procedures (animal model, dosing solutions) were the same as those described in Example 5 above."}, "Sprague-Dawley (SD) rats [3]": {"test_system": "Sprague-Dawley (SD) rats", "test": "Prophylactic treatment, acute kidney dysfunction following renal ischemia (renal artery clamping)", "description": "Plasma creatinine and urea were determined at different times. Data were analyzed by two way ANOVA using Bonferroni test for significance against the saline-treated group (n=3 per group; sal n=6).\nAnimals. Sprague-Dawley (SD) rats (male, weighing from 300 to 330 g) were obtained from Charles River Inc. Animals were maintained on standard laboratory chow under a 12:12 light:dark cycle.\nas §1, with “Blood was collected by cardiac puncture into a heparinized syringe (3 ml) and immediately transferred into appropriately labeled tubes that contain heparin as the anticoagulant. Following collection, all blood samples were kept on ice and centrifuged for 2 min at 13000 rpm. Plasma and urine aliquots (400 μl) were removed and stored at −80° C.” left out"}, "CD11b/c, KIM-1 and IL-1β": {"test_system": "CD11b/c, KIM-1 and IL-1β", "test": "Western blot of inflammatory and tubular injury markers in kidneys after renal ischemia", "conditions": "15 μg/kg/h for 24 h, renal clamping 30 min, FIG. 6", "description": "Bifunctional hormone #33 was infused at an infusion rate of 15 μg/kg/h for 24 h using Alzet™ minipumps. The proteins were identified with specific antibodies. (A) Western blot. (B) Histograms showing the relative abundance of the markers.\nRenal ischemia elicits increased expression of inflammatory markers such as IL-1, IL-18, Tumor Necrosis Factor alpha (TNF-α) and CD11b (neutrophil marker; evidence of neutrophil infiltration of the tissue) as well as tubular epithelial markers such as KIM-1, NGAL and NAG. There is considerable interest in these markers since these markers are expressed earlier than the observed rise in serum creatinine levels. Therefore, diagnosis of acute kidney injury based on the markers allows for earlier treatment of the patients which may produce better outcomes in terms of dialysis need and mortality. The effect of the bifunctional hormone #33 on the expression of inflammatory and tubular injury markers was assessed using the animal model described in Example 5.\nPreparation of dosing solutions. Peptide #33 was infused for 24 h at an infusion rate of 15 μg/Kg/h using Alzet™ minipumps.\nWestern blotting. Fresh kidneys were rapidly dissected and homogenized with a tissue homogenizer in ice cold lysis buffer: 20 mM Tris, 135 mM NaCl, 1% NP-40™, 0.1% SDS, 10% glycerol containing Complete-Mini Protease Inhibitor Cocktail™ (Roche). Following a 15-min incubation on ice, samples were centrifuged at 13,000 rpm for 5 min at 4° C. and the supernatants containing solubilized protein extracts were collected. Protein samples (40 ug protein) were resolved on 10% SDS polyacrylamide gel electrophoresis and transferred to PVDF membranes (Amersham, Pharmacia). Non-specific binding was eliminated by incubating membranes for 1 h at room temperature in a solution of 5% non-fat milk in TBST (10 mM Tris, 150 mM NaCl, 0.2% Tween-20). […]"}, "[4]": {"conditions": "later time points 21 h and 27 h"}, "[5]": {"conditions": "1.5 or 15 μg/kg/h for 24 h after clamp removal (Alzet minipumps), vs saline-treated animals at 24 h"}, "[6]": {"conditions": "15 μg/kg/h infused 1 h before and 1 h after renal artery clamping, vs saline group, each time point, FIG. 3"}}, "note": "Bridge positions count the residues as written; N and C are the ends. Square brackets hold non-standard residues; d marks the D form. Peptide text beside a SMILES is read from it.", "data": [{"smiles": "CC[C@H](C)[C@@H]1NC(=O)[C@H](CCCNC(=N)N)NC(=O)[C@H](CC(=O)O)NC(=O)[C@H](CCSC)NC(=O)[C@H](CCCNC(=N)N)NC(=O)CNC(=O)CNC(=O)[C@H](Cc2ccccc2)NC(=O)[C@@H](NC(=O)[C@H](CCSC)NC(=O)[C@@H]2CCCN2C(=O)[C@H](CCCCN)NC(=O)CNC(=O)[C@H](Cc2c[nH]c3ccccc23)NC(=O)[C@H](CCCNC(=N)N)NC(=O)[C@@H](Cc2ccccc2)NC(=O)[C@H](Cc2c[nH]cn2)NC(C)=O)CSSC[C@@H](C(=O)N[C@@H](CC(N)=O)C(=O)N[C@@H](CO)C(=O)N[C@@H](Cc2ccccc2)C(=O)N[C@@H](CCCNC(=N)N)C(=O)N[C@@H](Cc2ccc(O)cc2)C(N)=O)NC(=O)CNC(=O)[C@H](CC(C)C)NC(=O)CNC(=O)[C@H](CO)NC(=O)[C@H](CCC(N)=O)NC(=O)[C@H](C)NC(=O)CNC1=O", "note": "[SEQ ID NO: 33, Ac-H-f-R-W-G-K-P-M-[C-F-G-G-R-M-D-R-I-G-A-Q-S-G-L-G-C]-N-S-F-R-Y-NH2] (Ac-H[dF]RWGKPMCFGGRMDRIGAQSGLGCNSFRY-NH2; disulfide 9-25)", "values": [{"measurement": "BUN", "setting": "Sprague-Dawley (SD) rats [1]; at 4 h", "result": "prevented the rise"}, {"measurement": "plasma creatinine", "setting": "Sprague-Dawley (SD) rats [1]; at 4 h", "result": "prevented the rise"}, {"measurement": "reducing BUN levels, compared with native ANP", "setting": "Sprague-Dawley (SD) rats [1]; [4]", "result": "more effective than native ANP"}, {"measurement": "reducing creatinine levels, compared with native ANP", "setting": "Sprague-Dawley (SD) rats [1]; [4]", "result": "more effective than native ANP"}, {"measurement": "dose dependence of reduction in the blood markers of renal ischemia", "setting": "Sprague-Dawley (SD) rats [2]; 1.5 and 15 μg/kg/h for 24 h", "result": "dose-dependent reduction"}, {"measurement": "BUN", "setting": "Sprague-Dawley (SD) rats [2]; [5]", "result": "reduced plasma creatinine and BUN significantly"}, {"measurement": "plasma creatinine", "setting": "Sprague-Dawley (SD) rats [2]; [5]", "result": "reduced plasma creatinine and BUN significantly"}, {"measurement": "reduction in BUN levels, compared with native ANP", "setting": "Sprague-Dawley (SD) rats [2]; 24-hour infusion", "result": "more pronounced reduction"}, {"measurement": "reduction in creatinine levels, compared with native ANP", "setting": "Sprague-Dawley (SD) rats [2]; 24-hour infusion", "result": "more pronounced reduction"}, {"measurement": "blood urea nitrogen (BUN)", "setting": "Sprague-Dawley (SD) rats [3]; [6]", "result": "significantly reduced the elevation"}, {"measurement": "plasma creatinine", "setting": "Sprague-Dawley (SD) rats [3]; [6]", "result": "significantly reduced the elevation"}, {"measurement": "diminishing kidney injury, compared with native ANP", "setting": "Sprague-Dawley (SD) rats [3]; prophylactic use, 15 μg/kg/h", "result": "as effective as native ANP"}, {"measurement": "expression of CD11b/c (neutrophil marker) in kidney", "setting": "CD11b/c, KIM-1 and IL-1β", "result": "reduced the expression"}, {"measurement": "expression of IL-1β (inflammatory cytokine) in kidney", "setting": "CD11b/c, KIM-1 and IL-1β", "result": "reduced the expression"}, {"measurement": "expression of KIM-1 (tubular injury marker) in kidney", "setting": "CD11b/c, KIM-1 and IL-1β", "result": "reduced the expression"}]}]}
